Common to all, as to format: cell-based
In test [1] the test system is CCNE1-normal SKOV3 cells. The experiment in a line: Cell growth inhibition of CCNE1-normal SKOV3 cells (CellTiter-Glo). The following applies: Homo sapiens, SK-OV-3, 144 h, 6 days. Here is the method:
Cell Growth Inhibition of CCNE1-Normal SKOV3 Cells
(§1) SKOV3 cells were obtained from American Type Culture Collection (ATCC, HTB-77). SKOV3 cells were seeded in 96-well plates at 1000 cells/well in 90 μl of RPM11640 growth medium containing 10% FBS and 1% Penicillin Streptomycin, and then incubated at 37° C. overnight. The following day, the test compound was administered to the cells by using 1000× compound stock solution prepared in DMSO at various concentrations. 1000× compound stock solution was first diluted in culturing medium to 10x, then 10 uL compound medium was added to each well in the cell plates. After administration of the compound, the cells were then incubated at 37° C. for 6 days. Upon completion, the plates were equilibrated at room temperature for approximately 10 minutes. 100 ul of CellTiter-Glo® Reagent (Promega) was added to each well. The plates were then incubated at room temperature for 10 minutes and luminescence was recorded by EnSpire plate reader (PerkinElmer).
For orientation: In ATP-based viability assays light output follows the ATP content of the culture.

The subject of test [2] is CCNE1-amplified OVCAR3 cells. The experiment in a line: Cell growth inhibition of CCNE1-amplified OVCAR3 cells (CellTiter-Glo). The following applies: Homo sapiens, OVCAR-3, 144 h, 6 days. Here is the method:
Cell Growth Inhibition of CCNE1-Amplified OVCAR3 Cells
as §1, with “OVCAR3 cells” for “SKOV3 cells were obtained from American Type Culture Collection (ATCC, HTB-77). SKOV3 cells”, “at 2000” for “at 1000”

Test [3] deals with Phospho-Rb (Ser807/811) in OVCAR3 cells. The experiment in a line: Phospho-Rb expression inhibition in OVCAR3 cells quantified by In Cell Western. The following applies: Homo sapiens, OVCAR-3, 24 hours, read-out: OVCAR-3 pRb IC50. Here is the method:
Phospho-Rb Expression Inhibition in OVCAR3 Cells Quantified by in Cell Western
OVCAR3 cells were obtained from American Type Culture Collection (ATCC, HTB-161). OVCAR3 cells were plated in 96-well plates (VWR #10062-900, or Corning #3904) in 90 uL culture medium at a density of 20,000 cells/well in the RPM11640 growth medium containing 10% FBS and 1% Penicillin Streptomycin, and then incubated at 37° C. overnight. The following day, the test compound was administered to the cells by using 1000× compound stock solution prepared in DMSO at various concentrations. 1000× compound stock solution was first diluted in culturing medium to 10x, then 10 uL compound medium was added to each well in the cell plates. After administration of the compound, the cells were then incubated at 37° C. for 24 hours. Upon completion, the cells were washed with PBS briefly. 150 uL/well of 4% formaldehyde was added and the plates were incubated at room temperature for 20 mins. The cells were washed with PBS briefly, and permeabilized with 150 uL/well of ice cold 100% methanol for 10 mins. The cells were washed with PBS briefly and blocked with 100 uL/well LI-COR blocking buffer for 1 hr at room temperature with gentle shaking. The cells were incubated overnight at 4° C. with 50 uL primary antibody rabbit anti-Phospho-Rb (Ser807/811) (1:500, Cell Signaling, #8516) and anti-Rb (1:200, Santa Cruz, sc-73598) diluted in Intercept Blocking Buffer (LI-COR, #927-60001) containing 0.1% Tween 20. The next day, the cells were washed with 200 uL PBS containing 0.1% Tween 20, 5×5 mins at room temperature with gentle shaking, and incubated with 50 uL secondary antibody, IRDye® 800CW Goat anti-Rabbit IgG (1:1000, LI-COR, #926-32211) and IRDye® 680RD Goat anti-Mouse IgG (1:1000, LI-COR, #926-68070), in LI-COR blocking buffer with 0.2% Tween 20 for 1 hr at room temperature with gentle shaking. The cells were washed with 200 uL PBS containing 0.1% Tween 20, 5×5 mins at room temperature with gentle shaking. The cells were washed with PBS for 5 mins. 100 uL fresh PBS was added to each well and the plates were imaged on a LI-COR Odyssey CLX plate reader.

pIC50: −log10 of the molar value.

The values below come from US20240317777A1, “NOVEL MACROCYCLIC AMINOPYRAZOLE COMPOUNDS AS CDK2 INHIBITORS” (Accutar Biotechnology Inc., priority 2023, published 2024).

In general, pIC50 refers to the negative decadic logarithm of the IC50, by convention in mol/L.

For the compound `O=C1NC2CC(CCc3cncc(c3)Nc3cc(n[nH]3)[C@H]3CC[C@H](C3)O1)C2` [Compound 141, (1^1S,1^3R,7^1R,7^3R,Z)-2^1H-10-oxa-3,8-diaza-4(3,5)-pyridina-2(3,5)-pyrazola-1(1,3)-cyclopentana-7(1,3)-cyclobutanacyclodecaphan-9-one], the pIC50 was 6.60 to 7.30 in test [1], 8.00 to 8.70 in test [2] and no less than 8.70 in test [3].

Take `C[C@@H]1NC(=O)O[C@@H]2CC[C@@H](C2)c2cc([nH]n2)Nc2cnnc(c2)OCCC1(F)F` [Compound 218, (1^1S,1^3R,9S,Z)-8,8-difluoro-9-methyl-2^1H-5,12-dioxa-3,10-diaza-4(5,3)-pyridazina-2(3,5)-pyrazola-1(1,3)-cyclopentanacyclododecaphan-11-one]: the negative logarithm of the IC50 (pIC50) in test [1] is less than 5.90; in test [2], less than 6.60; in test [3], 7.30 to 8.00.

With `C[C@H]1CCCOc2cc(c(F)cn2)Nc2cc(n[nH]2)[C@H]2CC[C@H](C2)OC(=O)N1` [Compound 174, (1^1S,1^3R,9S,Z)-4^5-fluoro-9-methyl-2^1H-5,12-dioxa-3,10-diaza-4(4,2)-pyridina-2(3,5)-pyrazola-1(1,3)-cyclopentanacyclododecaphan-11-one], the pIC50 in test [1] was less than 5.90; in test [2], 6.60 to 7.30; in test [3] it was 6.60 to 7.30.

Turning to `C[C@H]1NC(=O)O[C@@H]2CC[C@@H](C2)c2cc([nH]n2)Nc2ccnc(c2)OCCC1(F)F` [Compound 220, (1^1S,1^3R,9R,Z)-8,8-difluoro-9-methyl-2^1H-5,12-dioxa-3,10-diaza-4(4,2)-pyridina-2(3,5)-pyrazola-1(1,3)-cyclopentanacyclododecaphan-11-one], the pIC50 was 5.90 to 6.60 in test [1], 7.30 to 8.00 in test [2] and 8.00 to 8.70 in test [3].

For `O=C1NC2CC(COc3cncc(c3)Nc3cc(n[nH]3)[C@H]3CC[C@H](C3)O1)C2` [Compound 171, (1^1S,1^3R,7^1R,7^3S,Z)-2^1H-5,10-dioxa-3,8-diaza-4(3,5)-pyridina-2(3,5)-pyrazola-1(1,3)-cyclopentana-7(1,3)-cyclobutanacyclodecaphan-9-one], the pIC50 is 5.90 to 6.60 in test [1], 8.00 to 8.70 in test [2] and no less than 8.70 in test [3].

On to `O=C1NC23CC(CCOc4cc(ccn4)Nc4cc([nH]n4)[C@H]4CC[C@H](C4)O1)(C2)C3` [Compound 22, (1^1S,1^3R,Z)-2^1H-5,11-dioxa-3,9-diaza-4(4,2)-pyridina-2(3,5)-pyrazola-8(1,3)-bicyclo[1.1.1]pentana-1(1,3)-cyclopentanacycloundecaphan-10-one], for which the figures for the pIC50 in test [1], in test [2] and in test [3] were 7.30 to 8.00, no less than 8.70 and no less than 8.70, respectively.

With `O=C1NC23CC(CCCc4cc(cc(C(F)F)n4)Nc4cc(n[nH]4)[C@H]4CC[C@H](C4)O1)(C2)C3` [Compound 98, (1^1S,1^3R,Z)-4^6-(difluoromethyl)-2^1H-11-oxa-3,9-diaza-4(4,2)-pyridina-2(3,5)-pyrazola-8(1,3)-bicyclo[1.1.1]pentana-1(1,3)-cyclopentanacycloundecaphan-10-one], the pIC50 is 7.30 to 8.00 in test [1], no less than 8.70 in test [2] and no less than 8.70 in test [3].

As for `C[C@@H]1C/C=C\C(F)(F)c2cc(ccn2)Nc2cc(n[nH]2)[C@H]2CC[C@H](C2)OC(=O)N1` [Compound 168, (1^1S,1^3R,2^4Z,9R)-5,5-difluoro-9-methyl-2^1H-12-oxa-3,10-diaza-4(4,2)-pyridina-2(3,5)-pyrazola-1(1,3)-cyclopentanacyclododecaphan-6-en-11-one], the pIC50 is less than 5.90 in test [1], 6.60 to 7.30 in test [2] and 7.30 to 8.00 in test [3].

On to `CC1CCCOc2cc(ccn2)Nc2cc([nH]n2)[C@H]2CC[C@H](C2)OC(=O)N1` (mixture of isomers) [Compound 8, (1^1S,1^3R,Z)-9-methyl-2^1H-5,12-dioxa-3,10-diaza-4(4,2)-pyridina-2(3,5)-pyrazola-1(1,3)-cyclopentanacyclododecaphan-11-one], for which the pIC50 is less than 5.90 in test [1], 7.30 to 8.00 in test [2] and 8.00 to 8.70 in test [3].

With `C[C@@H]1/C=C/COc2cc(ccn2)Nc2cc(n[nH]2)[C@H]2CC[C@H](C2)OC(=O)N1` [Compound 138, (1^1S,1^3R,2^4Z,7E,9R)-9-methyl-2^1H-5,12-dioxa-3,10-diaza-4(4,2)-pyridina-2(3,5)-pyrazola-1(1,3)-cyclopentanacyclododecaphan-7-en-11-one], the negative-log IC50 (pIC50) is less than 5.90 in test [1], 6.60 to 7.30 in test [2] and 7.30 to 8.00 in test [3].

With `C[C@H]1CCC(C)(C)NC(=O)O[C@@H]2CC[C@@H](C2)c2cc([nH]n2)Nc2ccnc(c2)O1` [Compound 113, (1^1S,1^3R,6S,Z)-6,9,9-trimethyl-2^1H-5,12-dioxa-3,10-diaza-4(4,2)-pyridina-2(3,5)-pyrazola-1(1,3)-cyclopentanacyclododecaphan-11-one], the negative logarithm of the IC50 (pIC50) in test [1] was 7.30 to 8.00; in test [2] it was 8.00 to 8.70; in test [3] it was no less than 8.70.

Regarding `O=C1NCCCOC2(CC2)c2cc(ccn2)Nc2cc([nH]n2)[C@H]2CC[C@H](C2)O1` [Compound 26, (1'S,3′R,Z)-spiro[cyclopropane-1,5′-6,12-dioxa-3,10-diaza-4(4,2)-pyridina-2(3,5)-pyrazola-1(1,3)-cyclopentanacyclododecaphan]-11′-one], the pIC50 in test [1] is 5.90 to 6.60; in test [2], 7.30 to 8.00; in test [3] it was 7.30 to 8.00.

On to `C[C@H]1CCC2(CC2)NC(=O)O[C@@H]2CC[C@@H](C2)c2cc([nH]n2)Nc2ccnc(c2)O1` [compound 110], for which the pIC50 in test [1] is less than 5.90; in test [2], less than 6.60; in test [3], 6.60 to 7.30.

Turning to `O=C1NC23CC(CCCc4cncc(c4)Nc4cc(n[nH]4)[C@H]4CC[C@H](C4)O1)(C2)C3` [Compound 118, (1^1S,1^3R,Z)-2^1H-11-oxa-3,9-diaza-4(3,5)-pyridina-2(3,5)-pyrazola-8(1,3)-bicyclo[1.1.1]pentana-1(1,3)-cyclopentanacycloundecaphan-10-one], the pIC50 in test [1] was 7.30 to 8.00; in test [2], no less than 8.70; in test [3], no less than 8.70.

As for `[2H]C1([2H])CC[C@H](C)NC(=O)O[C@@H]2CC[C@@H](C2)c2cc([nH]n2)Nc2cc(F)nc(c2)O1` [Compound 179, (1^1S,1^3R,9S,Z)-4^6-fluoro-9-methyl-2^1H-5,12-dioxa-3,10-diaza-4(4,2)-pyridina-2(3,5)-pyrazola-1(1,3)-cyclopentanacyclododecaphan-11-one-6,6-d2], the negative-log IC50 (pIC50) was less than 5.90 in test [1], 6.60 to 7.30 in test [2] and 7.30 to 8.00 in test [3].

In the case of `C[C@H]1CCCOc2nccc(c2F)Nc2cc(n[nH]2)[C@H]2CC[C@H](C2)OC(=O)N1` [Compound 176, (1^1S,1^3R,9S,Z)-4^3-fluoro-9-methyl-2^1H-5,12-dioxa-3,10-diaza-4(4,2)-pyridina-2(3,5)-pyrazola-1(1,3)-cyclopentanacyclododecaphan-11-one], the pIC50 in test [1] is 5.90 to 6.60; in test [2], 7.30 to 8.00; in test [3], 8.00 to 8.70.
